Consider 2 molecules from patent US8034548B2, “Methods and materials for assessing prostate cancer therapies” (The Regents of the University of California, priority 2003, dated 2011).

Experiment [1] deals with AR transcription complex on the promoters of PSA and KLK2 (Homo sapiens, UniProt P10275, T878A). The method, then:
Soluble chromatin was prepared after formaldehyde crosslinking and sonication. Specific IgGs against AR, N—CoR, PolII, Ac—H3/4, SRC1, TIF2, AIB1, and PCAF were used to immunoprecipitate protein-bound DNA fragments.

Experiment [2] concerns LNCaP cells infected with the empty vector. As to the kind of experiment: in vitro growth in low androgen concentrations, vector control cells. The format is cell-based, human. The settings on record: failed to grow unless supplemented. An excerpt: (§1) To determine if increased AR protein concentration plays a causal role in the HS-to-HR transition, we introduced an epitope-tagged wildtype AR cDNA by retrovirus infection into HS LNCaP human prostate cancer cells. A three-fold increase in AR levels in LNCaP-AR cells mimics the expression difference observed in the LNCaP HS/HR pair studied in the microarray experiment. To test whether increased AR expression causes the HS-to-HR transition, we designed two in vitro assays to mimic the clinical circumstances of HR disease. […] In contrast, LNCaP-AR cells grew in at least 80% lower concentrations of R1881.
(§2) Details of typical in vitro and in vivo growth experiments are as follows: LNCaP (ATCC) and LAPC4 cells were maintained in Iscove's medium supplemented with 10% fetal bovine serum. […] In vivo tumorigenicity was measured by injection of 5×10^5 LAPC4 or 1×10^6 LNCaP cells in 100 μl of Matrigel (Collaborative Biomedical) subcutaneously into the flanks of intact or castrated male SCID mice. Tumor size was measured weekly in three dimensions using caliber as described.^26 AR knockdown was performed by infection of HR LAPC4 with shRNA AR lentivirus. Tumors which grew in castrated mice were explanted, and analyzed by flow cytometry for the percentage of GFP-positive cells. […]

In experiment [3] the test system is LNCaP-AR cells. As to the kind of experiment: in vitro growth in low androgen concentrations, AR-overexpressing cells. The format is cell-based, human. The settings on record: compared with 100 pM needed by vector cells.
Excerpt: as §1, §2

In experiment [4] the test system is LNCaP-AR cells. As to the kind of experiment: Affymetrix U133A microarray of induced genes, AR-overexpressing cells. In kind it is cell-based, human.

Chain of AR transcription complex on the promoters of PSA and KLK2 (P10275 whole entry T878A, the tested form may be a part, one chain of several): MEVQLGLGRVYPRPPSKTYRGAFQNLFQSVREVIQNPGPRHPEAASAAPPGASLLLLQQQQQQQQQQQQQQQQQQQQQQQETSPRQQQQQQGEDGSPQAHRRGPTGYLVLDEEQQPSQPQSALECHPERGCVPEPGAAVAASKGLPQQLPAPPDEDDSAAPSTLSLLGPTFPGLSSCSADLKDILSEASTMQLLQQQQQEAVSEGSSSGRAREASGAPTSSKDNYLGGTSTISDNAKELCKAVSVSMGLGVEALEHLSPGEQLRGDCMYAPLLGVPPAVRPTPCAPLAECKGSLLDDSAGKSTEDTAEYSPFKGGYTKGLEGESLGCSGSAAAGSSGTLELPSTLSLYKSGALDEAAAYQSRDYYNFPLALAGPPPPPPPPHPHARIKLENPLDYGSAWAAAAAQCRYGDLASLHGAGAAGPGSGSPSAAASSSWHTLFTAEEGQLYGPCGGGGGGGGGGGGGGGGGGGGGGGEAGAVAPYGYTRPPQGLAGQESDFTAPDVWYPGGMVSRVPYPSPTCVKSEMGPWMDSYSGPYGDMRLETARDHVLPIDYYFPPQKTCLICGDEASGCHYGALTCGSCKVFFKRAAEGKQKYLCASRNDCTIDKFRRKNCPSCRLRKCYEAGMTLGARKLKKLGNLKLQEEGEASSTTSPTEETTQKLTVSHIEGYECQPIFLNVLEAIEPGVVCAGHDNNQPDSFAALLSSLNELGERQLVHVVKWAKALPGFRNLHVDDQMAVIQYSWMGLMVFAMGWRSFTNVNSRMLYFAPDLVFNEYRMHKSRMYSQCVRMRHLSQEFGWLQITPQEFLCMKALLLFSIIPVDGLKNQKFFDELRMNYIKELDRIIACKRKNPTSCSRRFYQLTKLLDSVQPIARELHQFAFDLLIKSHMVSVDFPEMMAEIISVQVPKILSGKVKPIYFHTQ

For the molecule `C[C@]1(O)CC[C@H]2[C@@H]3CCC4=CC(=O)CCC4=C3C=C[C@@]21C` [R1881], the “recruitment of AR and polymerase II to PSA and KLK2 promoters” value in experiment [1] was “AR and polymerase II were recruited to both promoters regardless of AR level”. In addition, the “R1881 supplement needed for growth in steroid-depleted, charcoal-stripped serum” value in experiment [2] is on record as 100 pM. The “lower concentration of R1881 in which cells grew” value in experiment [3] was “at least 80%”. In addition, the “total number of androgen-regulated genes” value in experiment [4] (increasing doses of R1881) is given as > 600 probe sets.

Take `CC(O)(CS(=O)(=O)c1ccc(F)cc1)C(=O)Nc1ccc(C#N)c(C(F)(F)F)c1` (centres unmarked) [bicalutamide]: the “subset of the total number of androgen-regulated genes induced” value in experiment [4] (LNCaP-AR, 10 μM bicalutamide) is < 10%.
